Experimental data as given in PMC9551036, “A selective and orally bioavailable VHL-recruiting PROTAC achieves SMARCA2 degradation in vivo” (Nature Communications, 2022).
“And” between values parts separate entries of the source, which are not always exact repeats. Identical values can stand only once. Like-named read-outs stand apart in the source and are kept apart here.

Experiment: Pharmacokinetic analyses in mouse
Type: in vivo
Conditions: for AUC(0-t): read-out: AUC0-24h; for AUC(0-inf): read-out: AUC0-inf
Protocol: Compound concentrations in plasma aliquots were measured by quantitative HPLC-MS/MS using an internal standard. Calibration and quality control samples were prepared using blank plasma from untreated animals. Samples were precipitated with acetonitrile and injected into a HPLC system (Agilent 1200). Separation was performed by gradients of 5 mmol/L ammonium acetate pH 4.0 and acetonitrile with 0.1% formic acid on a 2.1 mm by 50 mm XBridge BEH C18 reversed-phase column with 2.5 µm particles (Waters). The HPLC was interfaced by ESI operated in positive ionisation mode to a triple quadrupole mass spectrometer (5000 or 6500+ Triple Quad System, SCIEX) operated in multiple reaction monitoring mode. Transitions were 532.4 to 432.8 m/z for BI01810284, 525.6 to 425.7 m/z for BI01802983 and 1021.6 to 624.2 m/z for BI01580883. Chromatograms were analyzed with Analyst (SCIEX) and pharmacokinetic parameters were calculated by non-compartmental analysis using BI-proprietary software.

[1] = 5 mg/kg i.v., individual animals
[2] = 30 mg/kg p.o., individual animals
[3] = NMRI, mouse, plasma, iv, 5 mg/kg, NMRI mice, i.v., 5 mg/kg, PK study
[4] = NMRI, mouse, plasma, po, 30 mg/kg, NMRI mice, p.o., 30 mg/kg, PK study
[5] = mouse, 5 mg/kg i.v., NCA, individual animals, 5 mg/kg
[6] = mouse, 30 mg/kg p.o., NCA, individual animals, 30 mg/kg

## Cc1ncsc1-c1ccc(C(CCC(C)CCN2CCC(c3ccc4c(c3)n(C3CCCC3)c3nc(=O)c5c(Br)cccc5n43)CC2)NC(=O)C2CC(O)CN2C(=O)C(NC(=O)C2(F)CC2)C(C)(C)C)cc1 (stereo not shown) [ACBI2]
[1]
  AUC: 41.8 µM·h and 38 µM·h
  AUCinf: 42.3 µM·h and 38.4 µM·h
5 mg/kg i.v., time 0.25 h, individual animals
  Concentration: 6.8 µM
5 mg/kg i.v., time 1 h, individual animals
  Concentration: 5.13 µM
5 mg/kg i.v., time 6 h, individual animals
  Concentration: 1.22 µM
5 mg/kg i.v., time 24 h, individual animals
  Concentration: 0.0949 µM
30 mg/kg p.o. vs 5 mg/kg i.v., individual animals
  F: 23.8% and 20.9%
[2]
  AUC: 53.9 µM·h and 47.2 µM·h
  AUCinf: 55 µM·h and 48.3 µM·h
NMRI, mouse, plasma, iv, 5 mg/kg, NMRI mice, PK study
  MRT: 3.8 h
[3]
  AUC(0-t): 38 µM·h
  AUC(0-inf): 38 µM·h
NMRI, mouse, plasma, iv, 5 mg/kg, NMRI mice, i.v., 5 mg/kg, PK study, read-out: Clearance
  clearance: 2 mL/min/kg
NMRI, mouse, plasma, iv, 5 mg/kg, NMRI mice, i.v., 5 mg/kg, PK study, read-out: Vss
  Vd: 0.47 L/kg
NMRI, mouse, plasma, po, 30 mg/kg, NMRI mice, PK study
  MRT: 6.1 h
[4]
  AUC(0-t): 50 µM·h
  AUC(0-inf): 51 µM·h
NMRI, mouse, plasma, po, 30 mg/kg, NMRI mice, p.o., 30 mg/kg, PK study, read-out: Bioavailability
  bioavailability: 22%
NMRI, mouse, plasma, po, 80 mg/kg, NMRI mice, p.o., 80 mg/kg, Xenograft study
  AUC(0-t): 84 µM·h
mouse, 5 mg/kg i.v., 0.25 h, individual animals, 5 mg/kg
  Plasma concentration: 7.53 µM and 7.36 µM
mouse, 5 mg/kg i.v., 1 h, individual animals, 5 mg/kg
  Plasma concentration: 6 µM and 5.66 µM
mouse, 5 mg/kg i.v., 6 h, individual animals, 5 mg/kg
  Plasma concentration: 1.62 µM and 1.38 µM
mouse, 5 mg/kg i.v., 24 h, individual animals, 5 mg/kg
  Plasma concentration: 0.0855 µM and 0.0743 µM
[5]
  AUC: 41.8 µM·h and 38 µM·h
  AUCinf: 42.3 µM·h and 38.4 µM·h
  CL: 1.85 mL/min/kg and 2.04 mL/min/kg
  Vss: 0.426 L/kg and 0.449 L/kg
mouse, 30 mg/kg p.o., 0.333 h, individual animals, 30 mg/kg
  Plasma concentration: 0.968 µM and 1.53 µM
mouse, 30 mg/kg p.o., 1 h, individual animals, 30 mg/kg
  Plasma concentration: 4.18 µM and 4.16 µM
mouse, 30 mg/kg p.o., 2 h, individual animals, 30 mg/kg
  Plasma concentration: 4.46 µM and 4.88 µM
mouse, 30 mg/kg p.o., 6 h, individual animals, 30 mg/kg
  Plasma concentration: 3.38 µM and 2.65 µM
mouse, 30 mg/kg p.o., 24 h, individual animals, 30 mg/kg
  Plasma concentration: 0.173 µM and 0.175 µM
[6]
  AUC: 53.9 µM·h and 47.2 µM·h
  AUCinf: 55 µM·h and 48.3 µM·h
  F: 23.8% and 20.9%
mouse, plasma, intravenous, 5 mg/kg, 5 mg/kg i.v., time 0.25 h, individual animals, read-out: Concentration
  concentration at 0.25 h: 7.53 µM
mouse, plasma, intravenous, 5 mg/kg, 5 mg/kg i.v., time 1 h, individual animals, read-out: Concentration
  concentration at 1 h: 6 µM
